For orientation: IC50 means the concentration that inhibits the measured activity by half.

The values below come from publication PMC3878761, “Interactions of peptide triazole thiols with Env gp120 induce irreversible breakdown and inactivation of HIV-1 virions” (Retrovirology, 2013).

Entries after “also recorded” stand apart in the source; their conditions may differ. Like-named read-outs stand apart in the source and are kept apart here.

Assay [1] deals with pseudotype virions bearing the HIV-1 BaL envelope glycoprotein. The settings on record: determined by release of the p24 capsid protein; cited from earlier work. The source says: Since gp120 is the first viral protein to interact with the host cell, it is an attractive target for inhibiting infection. […] This inhibition is mediated by binding to a region of gp120 that partially overlaps the CD4 binding site.

Assay [2] concerns fully infectious HIV-1 BaL virions. The assay is described as follows: gp120 shedding from fully infectious HIV-1 BaL. The settings on record: read-out: gp120 shedding IC50 (*, fully infectious), 30 min at 37°C, western blot, ± SD. On the technique in general: In western blotting, separated proteins are transferred to a membrane and probed.
Method: (§2) The replication competent virions were assayed for peptide triazole-induced inhibition of infection, gp120 shedding and p24 release in a BSL-2 facility. Gradient purification of the viruses and p24 release assays were performed as with pseudoviruses (described in Materials and Methods above). Cell infection by virus and its inhibition by peptide triazoles were tested using a modified version of a previously reported p24 ELISA assay [60]. The p24 release assays as well as detection of gp120 shedding were conducted as with the BaL pseudovirions (described in Materials and Methods above).
(§3) Virions were purified using 6-20% iodixanol gradient and p24 content measured using ELISA. […] HOS CD4^+ve CCR5^+ve cells seeded, at 8,000 cells per well in a 96 well plate, were incubated for 24 hours followed by addition of pre-incubated inhibitor-virus mixture. […] Further, the peptide triazole and cell-free virus were pre-incubated for 30 min at 37°C followed by spinning for 2 hours at 13,600 rpm in a table top centrifuge (Eppendorf) at 4°C. Supernatant was separated and p24 content determined using the p24 capture ELISA (explained in the main Materials and Methods section) and gp120 using western blot analysis (explained in the Supplementary Text above).
The test system of assay [3] is gp41 of HIV-1 BaL pseudovirus (98–6 epitope). In words: gp41 content of treated virions, mAb 98-6 western blot. The settings on record: western blot mAb 98–6, BaL pseudovirus.
Assay [4] relates to R5-tropic and X4-tropic HIV-1. Details: method as in 2 sources, one per row (each row's own in cited_ref): ref 7-9, 12 = [7]; PMID 20518583; doi:10.2165/11203940-000000000-00000; Perry CM Maraviroc: a review of its use in the management of CCR5-tropic HIV-1 infection Drugs 2010 10 9 1189 1213 10.2165/11203940-000000000-00000 20518583 || [8]; PMID 23541872; doi:10.1016/j.antiviral.2013.03.017; Haqqani AA Tilton JC Entry inhibitors and their use in the treatment of HIV-1 infection Antiviral Res 2013 10 2 158 170 10.1016/j.antiviral.2013.03.017 23541872 || [9]; PMID 23290628; doi:10.1016/j.coviro.2012.12.002; Henrich TJ Kuritzkes DR HIV-1 entry inhibitors: recent development and clinical use Curr Opin Virol 2013 10 1 51 57 10.1016/j.coviro.2012.12.002 23290628 PMC4213740 || [12]; PMID 17933722; Emmelkamp JM Rockstroh JK CCR5 antagonists: comparison of efficacy, side effects, pharmacokinetics and interactions–review of the literature Eur J Med Res 2007 10 9 409 417 17933722 ||| ref 34 = [34]; PMID 23470147; doi:10.1021/bi400166b; Emileh A Tuzer F Yeh H Umashankara M Moreira DR Lalonde JM Bewley CA Abrams CF Chaiken IM A model of peptide triazole entry inhibitor binding to HIV-1 gp120 and the mechanism of bridging sheet disrupt. Particulars: cited from earlier work.

For assay [5], the system named is fully infectious HIV-1 BaL virions. Particulars: read-out: p24 release IC50 (*, fully infectious), 30 min at 37°C, p24 capture ELISA, ± SD. Background: In an ELISA, binding on a coated surface is turned into a signal by an enzyme label.
Method: as §2, §3
For assay [6], the system named is HIV-1 BaL pseudovirus. The assay is described as follows: gp120 shedding from HIV-1 BaL pseudovirus (western blot).
Assay [7] has as its system HIV-1 BaL pseudovirus.
Assay [8] has as its system CHO-K1 cells expressing gp160. The assay is described as follows: gp120 shedding and lysis, CHO-K1 cells expressing gp160. It counts as cell-based. Particulars: unpublished results, manuscript in preparation.
For assay [9], the target named is T1, HIV-1 YU2 gp120 (Human immunodeficiency virus type 1 group M subtype B, UniProt P35961).
T1 construct: made in house; host or cells: 293F cells
In words: SPR direct binding to immobilized YU2 gp120. The settings on record: immobilized YU2 gp120, PBS + 0.005% Tween 20, pH 7.2, 25°C. Here is the method:
(Additional file 1: Figure S2). […] Direct binding of the peptide triazole to sensor chip immobilized HIV-1 YU2 gp120 was measured as previously described using Surface Plasmon Resonance (SPR) with a Biacore 3000 optical biosensor (GE Healthcare). […] The cell viability was measured using the tetrazolium salt premix reagent, WST-1 from Takara Bio Inc. following the manufacturer’s protocol. The formazan product was measured using the microplate reader at absorbance wavelength 460 nm (Molecular Devices).

Assay [10] has as its system HIV-1 BaL pseudovirus. The assay is described as follows: TEM morphology of treated virions. The settings on record: KR13 1 μM, 24 hours.
The subject of assay [11] is gp41 of HIV-1 BaL pseudovirus (2 F5 epitope). In words: exposure of gp41 MPER epitope, 2 F5 ELISA. Particulars: fixed BaL pseudovirions, 30 min at 37°C (dose) or 1 μM (time), n = 3. Here is the method:
(§1) We also measured the presence of gp41 epitopes for human mAb’s 2 F5 and 4E10 using an altered ELISA detection method to minimize virus particle disruption. […] Virus fractions were collected and fixed with equal volume of 0.1% paraformaldehyde for 30 minutes at 4°C. The treated virus fractions were spun at 16,000 X g for 2 hours at 4°C in an Eppendorf table top centrifuge. Following PBS wash, fixed virions were coated on an ELISA plate at 50 μl per well and incubated overnight at 4°C. The plate was blocked with 3% BSA, and ELISA was used to detect gp41 epitopes with human gp41 antibodies 2 F5 and 4E10 followed by addition of anti-human IgG HRP secondary antibody.

The test system of assay [12] is gp41 of HIV-1 BaL pseudovirus (4E10 epitope). In words: exposure of gp41 MPER epitope, 4E10 ELISA. Particulars: fixed BaL pseudovirions, 30 min at 37°C (dose) or 1 μM (time), n = 3. Here is the method: as §1
For assay [13], the system named is HIV-1 BaL pseudovirus. In words: p24 release from HIV-1 BaL pseudovirus (ELISA).
[14] abbreviates: KR13 (1 μM), 30 minutes exposure, n = 3.
[15] abbreviates: KR13 1 μM or HNG156 100 μM, 1 min to 24 hours, 37°C.

Turning to `CC[C@H](C)[C@H](NC(=O)[C@@H](N)CCCNC(=N)N)C(=O)N[C@@H](CC(N)=O)C(=O)N[C@@H](CC(N)=O)C(=O)N[C@H](C(=O)N1C[C@@H](n2cc([C]34[CH]5[CH]6[CH]7[CH]3[Fe]6754389%10[CH]4[CH]3[CH]8[CH]9[CH]4%10)nn2)C[C@H]1C(=O)N[C@@H](Cc1c[nH]c2ccccc12)C(=O)N[C@@H](CO)C(=O)N[C@@H](CCC(=O)O)C(=O)N[C@@H](C)C(=O)N[C@@H](CCSC)C(=O)N[C@@H](CCSC)C(=O)NCCC(=O)N[C@@H](CCC(N)=O)C(=O)NCCC(=O)N[C@@H](CS)C(N)=O)[C@@H](C)CC` (stereo partly drawn) [KR13], the “lysis of BaL pseudotype virions” value in assay [1] is listed as “induced lysis of pseudotype virions bearing the HIV-1 BaL envelope glycoprotein”. The IC50 was determined as 1200 nM in [2]; 4400 nM in assay [5]; 32 ± 10 nM in assay [13] (read-out: p24 release IC50, 30 minutes, gradient fractionation, capture ELISA, 1% triton X = 100%, ± SD, n > 3). Moreover, in assay [3], the “gp41 retention / 98–6 detection” value is on record as “gp41 remained associated with virions; also recorded: gp41 was detected only weakly by 98–6 in either soluble or virion-associated fractions”. Also, in assay [4], the “inhibition of R5- and X4-tropic viruses” value is “potent inhibitor of R5- and X4-tropic viruses”. Besides, the “gp120 shedding, in words” value in assay [6] is listed as “caused gp120 shedding”. Further, the “loss of gp120” value in assay [6] (setting [14]) is on record as 65-70%. Moreover, the “kinetics of infectivity inhibition versus gp120 shedding” value in assay [7] (setting [15]) is “infectivity inhibition and gp120 shedding had similar kinetics”. In addition, in assay [7] (setting [14]), the loss of infectivity was 65-70%. Besides, the “inhibition of infection, in words” value in assay [7] (single round infection assay) was “inhibited infection”. For the same compound, in [8], the “gp120 shedding, CHO-K1 cells expressing gp160” value is on record as “caused gp120 shedding”. In addition, in [8], the “lysis of CHO-K1 cells expressing gp160” value was “did not lyse the cells”. Besides, the “SPR direct binding to gp120, in words” value in assay [9] was “proportionally increasing binding responses to immobilized gp120 at increasing concentrations of KR13”. In addition, the “core morphology of virions” value in assay [10] is “substantially different, with a shriveled and disordered appearance”. Further, the “reduction of virion diameter” value in [10] (37°C, n = 16) is reported as > 50%. In addition, the “reactivity to 2 F5” value in [11] was “reactivity to 4E10 and 2 F5 increased in a dose-dependent manner; also recorded: time dependent exposure of the MPER epitope”. The “reactivity to 4E10” value in assay [12] is “reactivity to 4E10 and 2 F5 increased in a dose-dependent manner; also recorded: time dependent exposure of the MPER epitope”. The “kinetics of p24 release” value in assay [13] (setting [15]) is “delayed kinetically”. For the same compound, the “loss of p24” value in assay [13] (setting [14]) was determined as 10%. Also, the “reduction in virion p24 content” value in assay [13] (KR13 (1 μM), 360 minutes) came to 50%.
